Where a name gives a salt, the structure may show the parent alone. Read-outs that look alike come from different tables or passages of the source.
Legend:
[1] = target: T1, phosphorylated VEGF-R2Δ50 (FLVK-P) (Homo sapiens, UniProt P35968, DEL940-989/E990V); test: VEGF-R2 coupled spectrophotometric (FLVK-P) assay; assay type: biochemical; details: for Ki: spectrophotometric assay
T1 construct: VEGF-R2Δ50 contains residues 806-939 and 990-1171; made in house; host or cells: baculovirus/insect cells
Description: VEGF-R2 Construct for Assay: This construct determines the ability of a test compound to inhibit tyrosine kinase activity. A construct (VEGF-R2Δ50) of the cytosolic domain of human vascular endothelial growth factor receptor 2 (VEGF-R2) lacking the 50 central residues of the 68 residues of the kinase insert domain was expressed in a baculovirus/insect cell system. Of the 1356 residues of full-length VEGF-R2, VEGF-R2Δ50 contains residues 806-939 and 990-1171, and also one point mutation (E990V) within the kinase insert domain relative to wild-type VEGF-R2. Autophosphorylation of the purified construct was performed by incubation of the enzyme at a concentration of 4 μM in the presence of 3 mM ATP and 40 mM MgCl2 in 100 mM Hepes, pH 7.5, containing 5% glycerol and 5 mM DTT, at 4° C. for 2 h. […] See Parast et al., Biochemistry, 37, 16788-16801 (1998).
Coupled Spectrophotometric (FLVK-P) Assay
The production of ADP from ATP that accompanies phosphoryl transfer was coupled to oxidation of NADH using phosphoenolpyruvate (PEP) and a system having pyruvate kinase (PK) and lactic dehydrogenase (LDH). The oxidation of NADH was monitored by following the decrease of absorbance at 340 nm (e340=6.22 cm^−1 mM^−1) using a Beckman DU 650 spectrophotometer. Assay conditions for phosphorylated VEGF-R2Δ50 (indicated as FLVK-P in the tables below) were the following: 1 mM PEP; 250 μM NADH; 50 units of LDH/mL; 20 units of PK/mL; 5 mM DTT; 5.1 mM poly(E4Y1); 1 mM ATP; and 25 mM MgCl2 in 200 mM Hepes, pH 7.5. Assay conditions for unphosphorylated VEGF-R2Δ50 (indicated as FLVK in the tables) were the following: 1 mM PEP; 250 μM NADH; 50 units of LDH/mL; 20 units of PK/mL; 5 mM DTT; 20 mM poly(E4Y1); 3 mM ATP; and 60 mM MgCl2 and 2 mM MnCl2 in 200 mM Hepes, pH 7.5. Assays were initiated with 5 to 40 nM of enzyme. Ki values were determined by measuring enzyme activity in the presence of varying concentrations of test compounds. The data were analyzed using Enzyme Kinetic and Kaleidagraph software.

[2] = system: human umbilical vein endothelial cells (HUVEC); test: HUVEC proliferation assay; assay type: cell-based; details: for inhibition at 0.15 µM / inhibition at 0.001 µM / inhibition at 0.01 µM / inhibition at 0.05 µM: Homo sapiens, HUVEC; for inhibition at 0.15 µM / % inhibition @ 150 nM: Table I screening results, 150 nM; for inhibition at 0.001 µM: 1 nM; for inhibition at 0.01 µM: 10 nM; for inhibition at 0.05 µM: 50 nM
How it was run: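 Exponentially growing HUVEC were serum-starved 24 h (F12K + 1% FBS), pre-treated 1 h with compound (0.1% DMSO final), then stimulated with 6 ng/ml VEGF. Proliferation was read 72 h later by MTT reduction (A595). IC50 came from seven 0.5-log concentrations in triplicate; screens gave % inhibition relative to VEGF-only and starved wells.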

[3] = crude combinatorial amide library
[4] = table following Table II (untitled), crude combinatorial library
[5] = table following Table II (untitled), crude combinatorial library, read-out: % inhibition @ 10 nM
[6] = Inhibition of HUVEC Proliferation, crude combinatorial urea library, read-out: Inhibition @ 50 nM
[7] = Inhibition of HUVEC Proliferation, crude combinatorial urea library, read-out: % inhibition @ 50 nM
[8] = crude combinatorial urea library, read-out: Inhibition of HUVEC Proliferation % inhibition @ 10 nM
[9] = crude combinatorial urea library, read-out: Inhibition of HUVEC Proliferation % inhibition @ 50 nM

T1 sequence (P35968 with tags, fused parts or gaps DEL940-989/E990V limits assumed): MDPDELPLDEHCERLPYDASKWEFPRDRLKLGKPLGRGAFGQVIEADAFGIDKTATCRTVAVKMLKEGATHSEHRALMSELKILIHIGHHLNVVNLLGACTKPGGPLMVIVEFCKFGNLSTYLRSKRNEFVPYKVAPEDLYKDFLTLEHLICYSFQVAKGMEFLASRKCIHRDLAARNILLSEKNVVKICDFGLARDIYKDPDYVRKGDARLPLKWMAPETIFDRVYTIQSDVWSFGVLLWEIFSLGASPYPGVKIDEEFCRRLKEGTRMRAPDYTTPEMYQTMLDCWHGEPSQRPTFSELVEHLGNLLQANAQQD

COc1cc(Nc2nc(N)c(-c3nc(-c4cccc(NC(=O)c5cc(Cl)ccn5)c4)cs3)s2)cc(OC)c1OC [D(11), 4-Chloro-pyridine-2-carboxylic acid {3-[4′-amino-2′-(3,4,5-trimethoxy-phenylamino)-[2,5′]bithiazolyl-4-yl]-phenyl}-amide]
Ki ([1]; Table 1): 1.9 nM

COc1cc(Nc2nc(N)c(-c3nc(-c4cccc(NC(=O)CCc5ccccc5)c4)cs3)s2)cc(OC)c1OC [D(16), N-{3-[4′-Amino-2′-(3,4,5-trimethoxy-phenylamino)-[2,5′]bithiazolyl-4-yl]-phenyl}-3-phenyl-propionamide]
Ki ([1]; Table 1): 11.8 nM

COc1cc(Nc2nc(N)c(-c3nc(-c4cccc(NC(=O)c5ccccc5C)c4)no3)s2)cc(OC)c1OC [D(57), N-(3-{5-[4-Amino-2-(3,4,5-trimethoxy-phenylamino)-thiazol-5-yl]-[1,2,4]oxadiazol-3-yl}-phenyl)-2-methyl-benzamide trifluoroacetate salt]
Ki ([1]; Table 1): 18 nM

COc1cc(Nc2nc(N)c(C3=NC(c4cccc(O)c4)CO3)s2)cc(OC)c1OC (centres unmarked) [I(9), S-3-{2-[4-Amino-2-(3,4,5-trimethoxy-phenylamino)-thiazol-5-yl]-4,5-dihydro-oxazol-4-yl}-phenol]
Ki ([1]; Table 2): 83 nM

COc1cc(Nc2nc(N)c(-c3nc(-c4cccc(NC(=O)c5cccc(Cl)n5)c4)cs3)s2)cc(OC)c1OC [D(54), 6-Chloro-pyridine-2-carboxylic acid {3-[4′-amino-2′-(3,4,5-trimethoxy-phenylamino)-[2,5′]bithiazolyl-4-yl]-phenyl}-amide]
Ki ([1]; Table 1): 6.3 nM

COc1cc(Nc2nc(N)c(-c3nc(-c4cccc(NC(C)=O)c4)cs3)s2)cc(OC)c1OC [D(1), N-{3-[4′-Amino-2′-(3,4,5-trimethoxy-phenylamino)-[2,5′]bithiazolyl-4-yl]-phenyl}acetamide]
Ki ([1]; Table 1): 46 nM

Nc1nc(Nc2cccnc2)sc1-c1nc(-c2cccc(NC(=O)c3cccc(Cl)c3)c2)no1 [D(52), 3-[3-(3-Chlorobenzamido)phenyl]-5-[2-(3-aminopyridyl)-4-amino-5-thiazolyl]-1,2,4-oxadiazole]
FLVK-P % inhibition @ 50 ([1]; Table 1, at 50, concentration unit not printed (head nM)): 27% @

COc1cc(Nc2nc(N)c(-c3nc(-c4cccc(NC(=O)c5ccc(SC)cc5)c4)cs3)s2)cc(OC)c1OC
inhibition at 0.15 µM [2, 3]: 31%

COc1cc(Nc2nc(N)c(-c3nc(-c4cccc(NC(=O)/C=C/c5c[nH]cn5)c4)cs3)s2)cc(OC)c1OC
inhibition at 0.15 µM [2, 3]: 2%

COc1cc(Nc2nc(N)c(-c3nc(-c4cc(NC(=O)c5cc(C)cc(=O)o5)ccc4C)no3)s2)cc(OC)c1OC
inhibition at 0.001 µM [2, 4]: -2%
inhibition at 0.01 µM [2, 5]: 66%

COc1cc(Nc2nc(N)c(-c3nc(-c4cccc(NC(=O)/C=C/c5ccc(Cl)cc5)c4)cs3)s2)cc(OC)c1OC
inhibition at 0.15 µM [2, 3]: 40%

COc1cc(Nc2nc(N)c(-c3nc(-c4cccc(NC(=O)c5ccc6[nH]ccc6c5)c4)cs3)s2)cc(OC)c1OC
inhibition at 0.15 µM [2, 3]: 15%

COc1cc(Nc2nc(N)c(-c3nc(-c4cccc(NC(=O)/C=C/c5cccc(Cl)c5)c4)cs3)s2)cc(OC)c1OC
% inhibition @ 150 nM [2, 3]: 0%

COc1ccc(C#N)c(C(=O)Nc2ccc(C)c(-c3noc(-c4sc(Nc5cc(OC)c(OC)c(OC)c5)nc4N)n3)c2)c1
inhibition at 0.001 µM [2, 4]: 9%
inhibition at 0.01 µM [2, 5]: 1%

CNC(=O)CNC(=O)Nc1nc(N)c(-c2nc(-c3cc(NC(=O)c4cccc(OC)c4)c(F)cc3F)no2)s1
inhibition at 0.05 µM [2, 6]: 51%

COc1cccc(C(=O)Nc2cc(-c3csc(-c4sc(NC(=O)NCCCN5CCCCC5C)nc4N)n3)c(F)cc2F)c1 (centres unmarked)
inhibition at 0.05 µM [2, 7]: 86%

COc1cc(Nc2nc(N)c(-c3nc(-c4cccc(NC(=O)CC(C)c5ccccc5)c4)cs3)s2)cc(OC)c1OC (centres unmarked)
inhibition at 0.15 µM [2, 3]: 26%

COc1cc(Nc2nc(N)c(-c3nc(-c4cc(NC(=O)/C=C/C5CC[C@H]6C=C[C@@H]5C6)ccc4C)no3)s2)cc(OC)c1OC (some centres unmarked)
inhibition at 0.001 µM [2, 4]: -12%
inhibition at 0.01 µM [2, 5]: 25%

COc1cc(Nc2nc(N)c(-c3nc(-c4cccc(NC(=O)/C=C/c5cccc6ccccc56)c4)cs3)s2)cc(OC)c1OC
% inhibition @ 150 nM [2, 3]: 0%

CNC(=O)Nc1nc(N)c(-c2nc(-c3cccc(NC(=O)/C=C(\C)c4ccccc4C)c3)cs2)s1
inhibition at 0.001 µM ([2]; Table II screening results, crude combinatorial amide library): -2%
inhibition at 0.01 µM ([2]; Table II screening results, crude combinatorial amide library, read-out: % inhibition @ 10 nM): 20%

COc1cc(Nc2nc(N)c(-c3nc(-c4cccc(NC(=O)Cc5ccc(Cl)cc5)c4)cs3)s2)cc(OC)c1OC
inhibition at 0.15 µM [2, 3]: -7%

CCCCN(CCCC)CCCNC(=O)Nc1nc(N)c(-c2nc(-c3cc(NC(=O)c4cccc(OC)c4)c(F)cc3F)no2)s1
inhibition at 0.05 µM [2, 6]: 80%

COc1cc(Nc2nc(N)c(-c3nc(-c4cccc(NC(=O)Cc5cccnc5)c4)cs3)s2)cc(OC)c1OC
inhibition at 0.15 µM [2, 3]: -20%

COc1cc(Nc2nc(N)c(-c3nc(-c4cc(NC(=O)Cc5cc(F)ccc5F)ccc4C)no3)s2)cc(OC)c1OC
inhibition at 0.001 µM [2, 4]: -7%
inhibition at 0.01 µM [2, 5]: 59%

CCN(CC)CCCC(C)NC(=O)Nc1nc(N)c(-c2nc(-c3cc(NC(=O)c4cccc(OC)c4)c(F)cc3F)cs2)s1 (centres unmarked)
inhibition at 0.05 µM [2, 7]: 84%

COc1cc(Nc2nc(N)c(-c3nc(-c4cc(NC(=O)CCc5ccc(C)cc5)ccc4C)no3)s2)cc(OC)c1OC
inhibition at 0.001 µM [2, 4]: -18%
inhibition at 0.01 µM [2, 5]: 23%

COc1cccc(C(=O)Nc2cccc(-c3csc(-c4sc(NC(=O)NCC(C)(C)N)nc4N)n3)c2)c1
inhibition at 0.01 µM [2, 8]: 14%
inhibition at 0.05 µM [2, 9]: 3%

COc1cccc(C(=O)Nc2cccc(-c3csc(-c4sc(NC(=O)NCCCN5CCCCCC5)nc4N)n3)c2)c1
inhibition at 0.01 µM [2, 8]: 2%
inhibition at 0.05 µM [2, 9]: 117%

COc1cccc(C(=O)Nc2cc(-c3csc(-c4sc(NC(=O)NCCOCCO)nc4N)n3)c(F)cc2F)c1 [drawing 699]
inhibition at 0.05 µM [2, 7]: 98%

COc1cc(Nc2nc(N)c(-c3nc(-c4cccc(NC(=O)Cc5cc(F)ccc5F)c4)cs3)s2)cc(OC)c1OC
inhibition at 0.15 µM [2, 3]: 49%

COc1cccc(C(=O)Nc2cccc(-c3csc(-c4sc(NC(=O)NCC(=O)O)nc4N)n3)c2)c1
inhibition at 0.01 µM [2, 8]: 42%
inhibition at 0.05 µM [2, 9]: 52%

CCN(CC)CCNC(=O)Nc1nc(N)c(-c2nc(-c3cc(NC(=O)c4cccc(OC)c4)c(F)cc3F)cs2)s1
inhibition at 0.05 µM [2, 7]: 40%

CCN1CCCC1CNC(=O)Nc1nc(N)c(-c2nc(-c3cc(NC(=O)c4cccc(OC)c4)c(F)cc3F)no2)s1 (centres unmarked)
inhibition at 0.05 µM [2, 6]: 12%

COc1cc(Nc2nc(N)c(-c3nc(-c4cc(NC(=O)CCCN(C)C)ccc4C)no3)s2)cc(OC)c1OC
inhibition at 0.001 µM [2, 4]: 5%
inhibition at 0.01 µM [2, 5]: 16%

COc1ccc(CC(=O)Nc2cccc(-c3csc(-c4sc(Nc5cc(OC)c(OC)c(OC)c5)nc4N)n3)c2)cc1
% inhibition @ 150 nM [2, 3]: 0%

COc1cccc(C(=O)Nc2cc(-c3csc(-c4sc(NC(=O)NCc5ccc(N(C)C)cc5)nc4N)n3)c(F)cc2F)c1
inhibition at 0.05 µM [2, 7]: 39%

COc1cc(Nc2nc(N)c(-c3nc(-c4cccc(NC(=O)C5C6CC7C(C6=O)C75)c4)cs3)s2)cc(OC)c1OC (centres unmarked)
inhibition at 0.15 µM [2, 3]: -6%

COc1cc(Nc2nc(N)c(-c3nc(-c4cc(NC(=O)C[C@H](C)c5ccccc5)ccc4C)no3)s2)cc(OC)c1OC
inhibition at 0.001 µM [2, 4]: -30%
inhibition at 0.01 µM [2, 5]: 24%

COc1cc(Nc2nc(N)c(-c3nc(-c4cccc(NC(=O)c5ccc(C#N)cc5)c4)cs3)s2)cc(OC)c1OC
inhibition at 0.15 µM [2, 3]: 34%

COc1ccccc1CC(=O)Nc1cccc(-c2csc(-c3sc(Nc4cc(OC)c(OC)c(OC)c4)nc3N)n2)c1
inhibition at 0.15 µM [2, 3]: 58%

COc1cc(Nc2nc(N)c(-c3nc(-c4cccc(NC(=O)c5cnc6ccccc6c5)c4)cs3)s2)cc(OC)c1OC [drawing 896]
inhibition at 0.15 µM [2, 3]: 42%

COc1cc(Nc2nc(N)c(-c3nc(-c4cccc(NC(=O)C(=O)c5c[nH]c6ccccc56)c4)cs3)s2)cc(OC)c1OC
% inhibition @ 150 nM [2, 3]: 0%

— patent US6620828B2, “Thiazole compounds and pharmaceutical compositions for inhibiting protein kinases and methods for their use” (Agouron Pharmaceuticals, Inc., priority 1999, dated 2003)
